Data as given in patent US9272013B2, “Methods for treating combined radiation and thermal injury” (University of Southern California, priority 2010, dated 2016).
“Also recorded” adds a separate entry of the source. Where no end group is shown, it is not given here. [ ]: non-standard residue; d: D form. Nle = CCCC[C@H](N)C(=O)O

Tests used:
Format in all cases: in vivo
[1] = test system: Guinea Pig Model of CRBI (200 cGy TBI combined with 18 mm burn injuries); assay: NorLeu^3-A(1-7) dose-response study, survival in guinea pig model of CRBI; conditions: 1 μg/wound/day and above, applied to site of thermal injury daily through day 14; 200 cGy TBI + 18 mm burns
Experimental: (§1) In a subsequent study, 200 cGy TBI was combined with 18 mm burn injuries in a NorLeu^3-A(1-7) dose-response study. On the day of thermal injury and daily through day 14, various concentrations of NorLeu^3-A(1-7) (0-300 μg/day) were applied to the site of thermal injury (FIG. 3).
(§2) For these studies, male Hartley guinea pigs weighing approximately 500 grams were purchased from Charles Rivers Laboratory (Charles Rivers, Mass.). The guinea pigs were housed in a 12:12 hour, light:dark, cycle in the USC Vivaria. The animals received 200 cGy TBI using a Cesuim 137 irradiator. One to two hours thereafter, the guinea pigs received a thermal injury. The thermal injuries were produced and post-operative care performed as described in Rodgers et al., 1997a,b, 2001. Briefly, after anesthesia, two burns were produced on each guinea pig with an 18 mm diameter solid brass rod, which was warmed in a 75° C. water bath. One end of the brass rod was placed on the back of the guinea pig for 50 seconds.
Each burn was treated with 2% HEC (vehicle for topical drug application) with and without NorLeu^3-A(1-7) in 0.05 mol/L phosphate buffer, pH 6.5, and was individually dressed. Treatment was started at various times after TBI and thermal injury as indicated below.

[2] = test system: Guinea Pig Model of CRBI (200 cGy TBI combined with 18 mm burn injuries); assay: Proliferating cells at the edge of the burn (immunohistochemical staining, MIB-1) in guinea pig CRBI model; conditions: topical, day 14, 200 cGy TBI + 18 mm burns
Experimental: as §1
For these studies, male Hartley guinea pigs weighing approximately 500 grams were purchased from Charles Rivers Laboratory (Charles Rivers, Mass.). The guinea pigs were housed in a 12:12 hour, light:dark, cycle in the USC Vivaria. The animals received 200 cGy TBI using a Cesuim 137 irradiator. One to two hours thereafter, the guinea pigs received a thermal injury. […]
On day 14 after thermal injury, the guinea pigs was euthanized, the burned areas will be excised en bloc. […] Healing was measured by the number of proliferating cells at the injury site. […]
With an Olympus Vanox-S AH-2 dissecting microscope and a magnification power of 100×, each section of the biopsy specimen was separated into either areas on the burn edge or the actual burn areas. […] In each section four to six consecutive medium-power fields (mpf, 100×) were evaluated. […] All stained cells located within the hair follicles of the biopsy sections were counted. […] Each field was then determined to be either a section on the edge of the burn or a part of the burn area itself. […]

[3] = test system: mouse model of CRBI (10 sec scald at 70 C following 600 cGy TBI); assay: Apoptosis in dermal tissue by TUNEL assay in mouse thermal injury / CRBI model; conditions: daily 100 ul per wound at 1 mg/ml, day 7
Experimental: Mice received thermal injury only received a 7% total body surface area scald at 70 C for 10 seconds (under ketamine/xylazine anesthesia). Mice that received the combined injury received total body irradiation with a cesium irradiator at a dose of 6 Gy and 2 hours later received the same scald injury. For the data presented, the treatments were started immediately after the scald injury and the wound were bandaged with Tegaderm. Treatment was daily with 100 ul give per wound at a concentration of 1 mg/ml. The animals were euthanized on day 7. Apoptosis in the dermal tissue was measured by TUNEL assay. NorLeu3-A(1-7) provides additional systems to mitigate delayed wound healing with the involvement of radiation.

[4] = test system: Guinea Pig Model of CRBI (200 cGy TBI and thermal injury 2 hours later); assay: Time point at which treatment can be initiated, survival in guinea pig CRBI model; conditions: 10 or 100 μg/daily
Experimental: A second study was conducted in this model to assess the length of time that treatment can be delayed and still reduce mortality. In this study, the guinea pigs underwent 200 cGy TBI and thermal injury 2 hours later. Treatment with placebo was started on day 0. Treatment with 10 or 100 μg/daily NorLeu^3-A(1-7) was initiated on day 0, 1, 2, 3 or 4. When treatment was started at days 0, 1, 2, or 3 survival was increased to approximately 40-60% versus 14% in the placebo-treated animals (FIG. 6-9).
as §2
Each burn was treated with 2% HEC (vehicle for topical drug application) with and without NorLeu^3-A(1-7) in 0.05 mol/L phosphate buffer, pH 6.5, and was individually dressed. […]

Asp-Arg-Nle-Tyr-Ile-His-Pro (DR[Nle]YIHP) [NorLeu^3-A(1-7)]
mortality associated with combined injury [1]: reduced mortality | number of proliferating cells in the hair follicle bulge at the edge of the wound ([2]; all doses (except 3 μg/wound/day)): increases proliferating cells; also recorded: increased the number of proliferating cells | number of (proliferating) cells in the basal keratinocyte layer at the edge of the burn ([2]; doses of 10 μg/daily and above): increases proliferating cells; also recorded: increase in the number of cells | apoptosis in the dermis and subdermis of thermal injuries ([3]; mouse CRBI: 10 sec scald at 70 C following 600 cGy TBI): reduces apoptosis | apoptosis at the site of thermal injury alone ([3]; mouse thermal injury only (no TBI): 7% TBSA scald at 70 C for 10 seconds): not at the site of thermal injury alone | effectiveness (survival) with delayed treatment ([4]; initiation of treatment delayed until day 4): effectiveness was reduced | survival ([4]; treatment started at days 0, 1, 2, or 3 after CRBI, versus 14% in placebo-treated animals): 40-60%
